Data as given in the NIST ThermoML archive (doi:10.1016/j.fluid.2005.07.017).

Test: xn = mol fraction of the nth substance listed
Details: Liquid, Vibrating tube method

c1ccsc1 [thiophene] + O=C=O
Details	mass density [kg/m3]
293.15 K, 101 kPa, x2 = 0	1063.59
303.15 K, 101 kPa, x2 = 0	1051.55
313.06 K, 7053 kPa, x2 = 0.5661	983.33
313.06 K, 8092 kPa, x2 = 0.5661	985.63
313.06 K, 8911 kPa, x2 = 0.5661	987.46
313.06 K, 10009 kPa, x2 = 0.5661	989.71
313.06 K, 11009 kPa, x2 = 0.5661	991.78
313.06 K, 11980 kPa, x2 = 0.5661	993.76
313.06 K, 13003 kPa, x2 = 0.5661	995.81
313.06 K, 13999 kPa, x2 = 0.5661	997.77
313.06 K, 15006 kPa, x2 = 0.5661	999.68
313.06 K, 15996 kPa, x2 = 0.5661	1001.53
313.06 K, 17015 kPa, x2 = 0.5661	1003.44
313.06 K, 17998 kPa, x2 = 0.5661	1005.25
313.06 K, 19007 kPa, x2 = 0.5661	1007.09
313.07 K, 4997 kPa, x2 = 0.199	1030.05
313.07 K, 6011 kPa, x2 = 0.199	1031.17
313.07 K, 7011 kPa, x2 = 0.199	1032.32
313.07 K, 8006 kPa, x2 = 0.199	1033.43
313.07 K, 9032 kPa, x2 = 0.199	1034.56
313.07 K, 10022 kPa, x2 = 0.199	1035.65
313.07 K, 11026 kPa, x2 = 0.199	1036.74
313.07 K, 12001 kPa, x2 = 0.199	1037.83
313.07 K, 13018 kPa, x2 = 0.199	1038.9
313.07 K, 13993 kPa, x2 = 0.199	1039.92
313.07 K, 14989 kPa, x2 = 0.199	1040.95
313.07 K, 16012 kPa, x2 = 0.199	1042.03
313.07 K, 17005 kPa, x2 = 0.199	1043.03
313.07 K, 18003 kPa, x2 = 0.199	1044.05
313.07 K, 19065 kPa, x2 = 0.199	1045.15
313.09 K, 1029 kPa, x2 = 0	1040.96
313.09 K, 1969 kPa, x2 = 0	1041.84
313.09 K, 2970 kPa, x2 = 0	1042.78
313.09 K, 3987 kPa, x2 = 0	1043.71
313.09 K, 5055 kPa, x2 = 0	1044.72
313.09 K, 5952 kPa, x2 = 0	1045.51
313.09 K, 6937 kPa, x2 = 0	1046.43
313.09 K, 8032 kPa, x2 = 0	1047.39
313.09 K, 9218 kPa, x2 = 0	1048.44
313.09 K, 10045 kPa, x2 = 0	1049.18
313.09 K, 11012 kPa, x2 = 0	1050.03
313.09 K, 12014 kPa, x2 = 0	1050.9
313.09 K, 12995 kPa, x2 = 0	1051.74
313.09 K, 13961 kPa, x2 = 0	1052.59
313.09 K, 14970 kPa, x2 = 0	1053.43
313.09 K, 15953 kPa, x2 = 0	1054.26
313.09 K, 17004 kPa, x2 = 0	1055.16
313.09 K, 18003 kPa, x2 = 0	1055.95
313.09 K, 18904 kPa, x2 = 0	1056.76
313.13 K, 9091 kPa, x2 = 0.9217	798.81
313.13 K, 10071 kPa, x2 = 0.9217	813.05
313.13 K, 11026 kPa, x2 = 0.9217	824.67
313.13 K, 12059 kPa, x2 = 0.9217	836.13
313.13 K, 13037 kPa, x2 = 0.9217	845.52
313.13 K, 14012 kPa, x2 = 0.9217	854.21
313.13 K, 15001 kPa, x2 = 0.9217	862.38
313.13 K, 16014 kPa, x2 = 0.9217	870.06
313.13 K, 17035 kPa, x2 = 0.9217	877.41
313.13 K, 18056 kPa, x2 = 0.9217	884.26
313.13 K, 19024 kPa, x2 = 0.9217	890.25
313.13 K, 19849 kPa, x2 = 0.9217	895.22
313.13 K, 20858 kPa, x2 = 0.9217	901.01
313.13 K, 21968 kPa, x2 = 0.9217	907.04
313.13 K, 23020 kPa, x2 = 0.9217	912.42
313.13 K, 24013 kPa, x2 = 0.9217	917.38
313.13 K, 25004 kPa, x2 = 0.9217	921.98
313.14 K, 5783 kPa, x2 = 0.3818	1008.02
313.14 K, 6953 kPa, x2 = 0.3818	1010.44
313.14 K, 7991 kPa, x2 = 0.6996	974.06
313.14 K, 8014 kPa, x2 = 0.3818	1012.13
313.14 K, 9021 kPa, x2 = 0.3818	1013.7
313.14 K, 9112 kPa, x2 = 0.6996	977.19
313.14 K, 9872 kPa, x2 = 0.6996	979.01
313.14 K, 9948 kPa, x2 = 0.3818	1015.07
313.14 K, 10945 kPa, x2 = 0.3818	1016.6
313.14 K, 10946 kPa, x2 = 0.6996	981.56
313.14 K, 11951 kPa, x2 = 0.6996	983.92
313.14 K, 12015 kPa, x2 = 0.3818	1018.22
313.14 K, 13025 kPa, x2 = 0.3818	1019.65
313.14 K, 13033 kPa, x2 = 0.6996	986.45
313.14 K, 13973 kPa, x2 = 0.3818	1021.04
313.14 K, 13991 kPa, x2 = 0.6996	988.63
313.14 K, 14931 kPa, x2 = 0.6996	990.71
313.14 K, 15006 kPa, x2 = 0.3818	1022.52
313.14 K, 15988 kPa, x2 = 0.6996	993.02
313.14 K, 15992 kPa, x2 = 0.3818	1023.89
313.14 K, 16994 kPa, x2 = 0.6996	995.2
313.14 K, 17012 kPa, x2 = 0.3818	1025.32
313.14 K, 18022 kPa, x2 = 0.6996	997.41
313.14 K, 18039 kPa, x2 = 0.3818	1026.72
313.14 K, 18908 kPa, x2 = 0.3818	1027.86
313.15 K, 101 kPa, x2 = 0	1039.32
322.95 K, 5076 kPa, x2 = 0.199	1016.5
322.95 K, 6015 kPa, x2 = 0.199	1017.63
322.95 K, 7042 kPa, x2 = 0.199	1018.88
322.95 K, 8054 kPa, x2 = 0.199	1020.1
322.95 K, 9012 kPa, x2 = 0.199	1021.25
322.95 K, 9975 kPa, x2 = 0.199	1022.38
322.95 K, 11019 kPa, x2 = 0.199	1023.61
322.95 K, 12001 kPa, x2 = 0.199	1024.72
322.95 K, 12978 kPa, x2 = 0.199	1025.86
322.95 K, 14026 kPa, x2 = 0.199	1027.05
322.95 K, 15010 kPa, x2 = 0.199	1028.15
322.95 K, 16019 kPa, x2 = 0.199	1029.28
322.95 K, 17005 kPa, x2 = 0.199	1030.36
322.95 K, 18005 kPa, x2 = 0.199	1031.46
